This is an account of results in patent US4226980A, “Novel derivatives of fortimicin B and process for preparing same” (Abbott Laboratories, priority 1978, dated 1980).

Data set [1] is classed as physicochemical. The settings on record: strongly alkaline conditions. The text has this: That is, Compound I-a is almost decomposed in an alkaline solution with a pH of 10 at room temperature for 2 weeks to form compounds having low activity.
Data set [2] has as its system Escherichia coli R18 KY-8321. The data set is described as follows: antibacterial activity (MIC), resistant strain. In kind it is cell-based. The settings on record: medium pH 7.2; strain producing gentamicin nucleotidyltransferase and neomycin phosphotransferase II; unit assumed. The procedure: (§1) Furthermore in the following Table 3, the antibacterial activity (MIC) of the compounds are set forth. The measurement was carried out according to the Japanese Antibiotic Medicament Standard using a medium having a pH of 7.2. Numbers of the compounds in Table 3 correspond to those in Tables 1 and 2.

The next data set concerns Providencia sp. 164. The data set is described as follows: antibacterial activity (MIC), resistant strain. In kind it is cell-based. The settings on record: medium pH 7.2; strain producing gentamicin acetyltransferase (footnote 5); unit assumed. On the procedure: as §1
In data set [3] the test system is Escherichia coli 57R/W677. The data set is described as follows: antibacterial activity (MIC), resistant strain. In kind it is cell-based. The settings on record: medium pH 7.2; strain "producing gentamicin" (footnote 4); unit assumed. The procedure: as §1
Data set [4] has as its system Pseudomonas aeruginosa R9 KY8516. The data set is described as follows: antibacterial activity (MIC), resistant strain. In kind it is cell-based. The settings on record: medium pH 7.2; strain "producing kanamycin" (footnote 1); unit assumed. The procedure: as §1
The subject of data set [5] is Klebsiella pneumniae 3020 Y60. The data set is described as follows: antibacterial activity (MIC), resistant strain. In kind it is cell-based. The settings on record: medium pH 7.2; strain "producing gentamicin" (footnote 4); unit assumed. On the procedure: as §1
In data set [6] the test system is Escherichia coli R17 Z-343. The data set is described as follows: antibacterial activity (MIC), resistant strain. The settings on record: medium pH 7.2; strain "producing kanamycin" (footnote 1); unit assumed. In kind it is cell-based. The procedure: as §1
Data set [7] relates to Escherichia coli R19 KY-8348. The data set is described as follows: antibacterial activity (MIC), resistant strain. The class given is cell-based. The settings on record: medium pH 7.2; strain producing gentamicin acetyltransferase; unit assumed. The procedure: as §1
Data set [8] has as its system Pseudomonas aeruginosa R4 KY8511. The data set is described as follows: antibacterial activity (MIC), resistant strain. The settings on record: medium pH 7.2; strain producing gentamicin acetyltransferase; unit assumed. The class given is cell-based. The procedure:
as §1

A further data set deals with Escherichia coli NIHJ-2. Nature of the data set: antibacterial activity (MIC). The class given is cell-based. The settings on record: medium pH 7.2, Japanese Antibiotic Medicament Standard; unit assumed. On the procedure:
as §1

In data set [9] the test system is Staphylococcus aureus Smith. The data set is described as follows: antibacterial activity (MIC). In kind it is cell-based. The settings on record: medium pH 7.2, Japanese Antibiotic Medicament Standard; unit assumed. The procedure: as §1
Data set [10] relates to Staphylococcus aureus 209-p. The data set is described as follows: antibacterial activity (MIC). The class given is cell-based. The settings on record: medium pH 7.2, Japanese Antibiotic Medicament Standard; unit assumed. The procedure:
as §1

In data set [11] the test system is Klebsiella pneumoniae #8045. Nature of the data set: antibacterial activity (MIC). In kind it is cell-based. The settings on record: medium pH 7.2, Japanese Antibiotic Medicament Standard; unit assumed. The procedure: as §1
Data set [12] concerns Shigella sonnei ATCC 9290. The data set is described as follows: antibacterial activity (MIC). In kind it is cell-based. The settings on record: medium pH 7.2, Japanese Antibiotic Medicament Standard; unit assumed. The procedure: as §1
The next data set relates to Escherichia coli 3100. The data set is described as follows: antibacterial activity (MIC). The settings on record: medium pH 7.2, Japanese Antibiotic Medicament Standard; unit assumed. In kind it is cell-based. On the procedure: as §1
In data set [13] the test system is Pseudomonas aeruginosa BMH#10. Nature of the data set: antibacterial activity (MIC). The settings on record: medium pH 7.2, Japanese Antibiotic Medicament Standard; unit assumed. The class given is cell-based. The procedure:
as §1

Data set [14] relates to Bacillus subtilis ATCC 6633. Nature of the data set: antibacterial activity (MIC). The class given is cell-based. The settings on record: medium pH 7.2, Japanese Antibiotic Medicament Standard; unit assumed. On the procedure:
as §1

The conditions of data set [15]: strongly alkaline or alkaline conditions; cited from earlier work.
Another data set concerns Providencia sp. KY3950. The data set is described as follows: antibacterial activity (MIC). The class given is cell-based. The settings on record: medium pH 7.2, Japanese Antibiotic Medicament Standard; unit assumed. On the procedure: as §1

As for `COC1C(O)C(N)C(OC2OC(C(C)N)CCC2N)C(O)C1N(C)C(=O)CN` (centres unmarked) [Compound 2, fortimicin A, reference compound], the “stability under strongly alkaline conditions” value in [1] is “slightly unstable”. Further, the antibacterial activity (MIC) in [2] amounted to 3.12 µg/mL; with Providencia sp. 164 it was 3.12 µg/mL; in [3] it was 6.25 µg/mL; in data set [4], 12.5 µg/mL; in [5], 6.25 µg/mL; in data set [6], 1.56 µg/mL. Besides, the antibacterial activity (MIC) in data set [7] is > 100 µg/mL; in data set [8], > 100 µg/mL; with Escherichia coli NIHJ-2, 1.56 µg/mL; in [9], 1.56 µg/mL; in [10], 0.78 µg/mL; in data set [11], 1.56 µg/mL. The antibacterial activity (MIC) in data set [12] worked out at 6.25 µg/mL; in the data set with Escherichia coli 3100, 6.25 µg/mL; in data set [13], 0.78 µg/mL; in data set [14], 0.78 µg/mL. In data set [15], the “stability under alkaline conditions (background)” value was “slightly unstable”.

For the molecule `COC1C(O)C(N)C(OC2OC(C(C)N)CCC2NCCN)C(O)C1N(C)CCN` (centres unmarked) [Compound 5, 4,2'-di-N-(2-aminoethyl)fortimicin B], the antibacterial activity (MIC) in [2] is 6.25 µg/mL; in the data set on Providencia sp. 164, 50 µg/mL; in data set [3] it was 6.25 µg/mL; in [4], > 100 µg/mL; in [5], 25 µg/mL; in data set [6], 3.12 µg/mL. Further, the antibacterial activity (MIC) is 25 µg/mL in data set [7]; 100 µg/mL in data set [8]; 12.5 µg/mL in the data set with Providencia sp. KY3950; 3.12 µg/mL in the data set with Escherichia coli NIHJ-2; 1.56 µg/mL in [9]; 1.56 µg/mL in data set [10]. The antibacterial activity (MIC) in data set [11] came to 3.12 µg/mL; in data set [12], 12.5 µg/mL; with Escherichia coli 3100 it was 6.25 µg/mL; in [13] it was 1.56 µg/mL; in [14] it was 1.56 µg/mL.

For the molecule `COC1C(O)C(N)C(OC2OC(C(C)N)CCC2NC(=O)CN)C(O)C1N(C)C[C@@H](O)CCN` (stereo partly drawn) [Compound 6, 4-N-[(S)-4-amino-2-hydroxybutyl]-2'-N-glycylfortimicin B], the antibacterial activity (MIC) turned out to be 3.12 µg/mL in [2]; 6.25 µg/mL in the data set with Providencia sp. 164; 6.25 µg/mL in data set [3]; 25 µg/mL in [4]; 6.25 µg/mL in data set [5]; 1.56 µg/mL in [6]. Moreover, the antibacterial activity (MIC) in data set [7] worked out at 3.12 µg/mL; in data set [8], 50 µg/mL; in the data set with Providencia sp. KY3950, 6.25 µg/mL; with Escherichia coli NIHJ-2, 3.12 µg/mL; in [9] it was 0.78 µg/mL; in data set [10] it was 1.56 µg/mL. Further, the antibacterial activity (MIC) in data set [11] came out at 1.56 µg/mL; in data set [12], 6.25 µg/mL; in the data set with Escherichia coli 3100 it was 6.25 µg/mL; in data set [13] it was 0.78 µg/mL; in data set [14], 0.78 µg/mL.

Regarding `COC1C(O)C(N)C(OC2OC(C(C)N)CCC2NCCN)C(O)C1N(C)C[C@@H](O)CCN` (stereo partly drawn) [Compound 7, 4-N-[(S)-4-amino-2-hydroxybutyl]-2'-N-(2-aminoethyl)fortimicin B], the antibacterial activity (MIC) in [2] was determined as 3.12 µg/mL; in the data set on Providencia sp. 164, 12.5 µg/mL; in data set [3], 3.12 µg/mL; in data set [4] it was 6.25 µg/mL; in data set [5], 6.25 µg/mL; in data set [6], 0.78 µg/mL. Further, the antibacterial activity (MIC) in data set [7] was found to be 0.78 µg/mL; in data set [8], 12.5 µg/mL; with Providencia sp. KY3950, 6.25 µg/mL; with Escherichia coli NIHJ-2, 3.12 µg/mL; in data set [9], 1.56 µg/mL; in [10] it was 0.78 µg/mL. In addition, the antibacterial activity (MIC) in data set [11] was found to be 0.78 µg/mL; in [12] it was 3.12 µg/mL; in the data set with Escherichia coli 3100, 3.12 µg/mL; in [13], 0.78 µg/mL; in data set [14] it was 0.4 µg/mL.

For `COC1C(O)C(N)C(OC2OC(C(C)N)CCC2NC(=O)[C@@H](O)CCN)C(O)C1N(C)C[C@@H](O)CCN` (stereo partly drawn) [Compound 8, 4-N-[(S)-4-amino-2-hydroxybutyl]-2'-N-[(S)-4-amino-2-hydroxybutyryl]fortimicin B], the antibacterial activity (MIC) worked out at 6.25 µg/mL in data set [2]; 6.25 µg/mL with Providencia sp. 164; 3.12 µg/mL in data set [3]; 50 µg/mL in data set [4]; 12.5 µg/mL in data set [5]; 0.78 µg/mL in [6]. Further, the antibacterial activity (MIC) in [7] turned out to be 3.12 µg/mL; in [8], 100 µg/mL; in the data set with Providencia sp. KY3950, 6.25 µg/mL; in the data set with Escherichia coli NIHJ-2, 1.56 µg/mL; in [9], 1.56 µg/mL; in [10], 0.78 µg/mL. Further, the antibacterial activity (MIC) in data set [11] came to 1.56 µg/mL; in data set [12], 6.25 µg/mL; with Escherichia coli 3100, 3.12 µg/mL; in data set [13] it was 0.78 µg/mL; in [14], 0.78 µg/mL.

With `COC1C(O)C(N)C(OC2OC(C(C)N)CCC2NC[C@@H](O)CCN)C(O)C1N(C)C[C@@H](O)CCN` (stereo partly drawn) [Compound 9, 4,2'-di-N-[(S)-4-amino-2-hydroxybutyl]fortimicin B], the antibacterial activity (MIC) in [2] was 1.56 µg/mL; in the data set with Providencia sp. 164, 3.12 µg/mL; in data set [3] it was 3.12 µg/mL; in [4], 3.12 µg/mL; in data set [5] it was 3.12 µg/mL; in data set [6], 1.56 µg/mL. The antibacterial activity (MIC) turned out to be 6.25 µg/mL in data set [7]; 100 µg/mL in [8]; 1.56 µg/mL in the data set with Providencia sp. KY3950; 1.56 µg/mL in the data set with Escherichia coli NIHJ-2; 0.78 µg/mL in data set [9]; 0.78 µg/mL in data set [10]. Moreover, the antibacterial activity (MIC) in data set [11] amounted to 1.56 µg/mL; in data set [12], 3.12 µg/mL; with Escherichia coli 3100 it was 3.12 µg/mL; in data set [13], 0.78 µg/mL; in data set [14] it was 0.4 µg/mL.

As for `COC1C(O)C(N)C(OC2OC(C(C)N)CCC2NCCO)C(O)C1N(C)C[C@@H](O)CCN` (stereo partly drawn) [Compound 10, 4-N-[(S)-4-amino-2-hydroxybutyl]-2'-N-(2-hydroxyethyl)fortimicin B], the antibacterial activity (MIC) in data set [2] came out at 1.56 µg/mL; with Providencia sp. 164, 50 µg/mL; in data set [3], 3.12 µg/mL; in data set [4], 50 µg/mL; in data set [5], 100 µg/mL; in [6] it was 3.12 µg/mL. Besides, the antibacterial activity (MIC) in [7] is 100 µg/mL; in data set [8], > 100 µg/mL; in the data set on Providencia sp. KY3950, 12.5 µg/mL; in the data set with Escherichia coli NIHJ-2, 6.25 µg/mL; in data set [9] it was 0.78 µg/mL; in [10], 1.56 µg/mL. Also, the antibacterial activity (MIC) in data set [11] was 6.25 µg/mL; in data set [12], 6.25 µg/mL; in the data set on Escherichia coli 3100 it was 3.12 µg/mL; in [13], 1.56 µg/mL; in data set [14] it was 0.78 µg/mL.

Take `NC[C@H]1O[C@H](O[C@H]2[C@H](O)[C@@H](O[C@H]3O[C@H](CO)[C@@H](O)[C@H](N)[C@H]3O)[C@H](N)C[C@@H]2N)[C@H](O)[C@@H](O)[C@@H]1O` [KA, kanamycin A, reference compound]: the antibacterial activity (MIC) in [2] was > 100 µg/mL; in the data set on Providencia sp. 164, > 100 µg/mL; in [3] it was 100 µg/mL; in data set [4], > 100 µg/mL; in data set [5], > 100 µg/mL; in data set [6], 12.5 µg/mL. Moreover, the antibacterial activity (MIC) is > 100 µg/mL in [7]; > 100 µg/mL in data set [8]; 12.5 µg/mL in the data set with Providencia sp. KY3950; 1.56 µg/mL in the data set on Escherichia coli NIHJ-2; 0.4 µg/mL in data set [9]; 0.4 µg/mL in data set [10]. For the same molecule, the antibacterial activity (MIC) in data set [11] came out at 0.78 µg/mL; in data set [12], 3.12 µg/mL; in the data set on Escherichia coli 3100 it was 3.12 µg/mL; in [13], 25 µg/mL; in data set [14], 0.4 µg/mL.
